How the values were obtained:
Assay in all cases: relative viability (nuclei count vs DMSO), 5 days (fraction); higher = more cells survive
[1] = compound: C1=CC2=NC=CN=C2C=C1/C=C/3\C(=O)NC(=O)S3 + NC(=O)Nc1cc(-c2cccc(F)c2)sc1C(=O)N[C@H]1CCCNC1 [AZD7762] (partner 0.2 µM)
Method in brief: (§1)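 Cells from lung cancer lines were seeded into 1536-well plates and, one day later, dosed by pin tool. Treatments were either a single drug or a fixed dose of an anchor drug with five library-drug doses (not always all listed) in √10 steps. After 5 days, nuclei were stained in a one-step fixation (final 0.05% Triton X-100, 1% formaldehyde, 1 ug/ml Hoechst) and counted on 4× images, and relative viability is the treated-to-vehicle nuclei ratio, as the median of duplicate plates.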

[2] = compound: C1=CC2=NC=CN=C2C=C1/C=C/3\C(=O)NC(=O)S3 + CS(=O)(=O)N1CCN(Cc2cc3nc(-c4cccc5[nH]ncc45)nc(N4CCOCC4)c3s2)CC1 [Pictilisib] (partner 1 µM)
Method in brief: as §1

BGJ398 + Phenformin = compound: CCN1CCN(c2ccc(Nc3cc(N(C)C(=O)Nc4c(Cl)c(OC)cc(OC)c4Cl)ncn3)cc2)CC1 [BGJ398] + N=C(N)NC(=N)NCCc1ccccc1 [Phenformin] (partner 250 µM)
Method in brief: as §1

[3] = compound: C1=CC2=NC=CN=C2C=C1/C=C/3\C(=O)NC(=O)S3 + CC(=O)Nc1cccc(-n2c(=O)n(C3CC3)c(=O)c3c(Nc4ccc(I)cc4F)n(C)c(=O)c(C)c32)c1 [Trametinib] (partner 0.02 µM)
Method in brief: as §1

Cell Line	relative viability ([1]; first compound 0.02 µM)	relative viability ([1]; first compound 0.06325 µM)	relative viability ([1]; first compound 0.2 µM)	relative viability ([1]; first compound 0.6325 µM)	relative viability ([1]; first compound 2 µM)	relative viability ([2]; first compound 0.02 µM)	relative viability ([2]; first compound 0.06325 µM)	relative viability ([2]; first compound 0.2 µM)	relative viability ([2]; first compound 0.6325 µM)	relative viability ([2]; first compound 2 µM)	relative viability (BGJ398 + Phenformin; first compound 0.01 µM)	relative viability (BGJ398 + Phenformin; first compound 0.03162 µM)	relative viability (BGJ398 + Phenformin; first compound 0.1 µM)	relative viability (BGJ398 + Phenformin; first compound 0.3162 µM)	relative viability (BGJ398 + Phenformin; first compound 1 µM)	relative viability ([3]; first compound 0.02 µM)	relative viability ([3]; first compound 0.06325 µM)	relative viability ([3]; first compound 0.2 µM)	relative viability ([3]; first compound 0.6325 µM)	relative viability ([3]; first compound 2 µM)
NCI-H838	0.915	0.915	0.914	0.861	0.685	0.395	0.446	0.429	0.369	0.322	0.446	0.549	0.612	0.437	0.305	0.537	0.47	0.555	0.454	0.366
NCI-H1755	0.473	0.405	0.47	0.399	0.476	0.423	0.403	0.515	0.449	0.426	0.533	0.669	0.618	0.656	0.601	0.719	0.642	0.823	0.772	0.764
HCC-78	0.681	0.567	0.684	0.732	0.202	0.267	0.202	0.246	0.206	0.169	0.67	0.609	0.735	0.731	0.607	0.772	0.643	0.677	0.794	0.532
IA-LM	–	–	–	–	–	–	0.524	0.308	0.333	0.286	–	–	–	–	–	–	–	–	–	–
NCI-H322M	0.559	0.598	0.607	0.51	0.498	0.477	0.476	0.586	0.518	0.434	0.791	0.663	0.774	0.696	0.845	0.535	0.507	0.469	0.503	0.383
COR-L23	–	–	–	–	–	0.784	1.01	0.78	0.717	0.453	0.42	0.441	0.5	0.397	0.391	0.557	0.596	0.617	0.567	0.422
NCI-H2023	–	–	–	–	–	0.236	0.27	0.26	0.223	0.16	0.409	0.483	0.434	0.398	0.371	0.511	0.539	0.516	0.428	0.427
COR-L 105	–	–	–	–	–	0.396	0.435	0.377	0.398	0.337	0.425	0.377	0.525	0.556	0.448	0.422	0.549	0.451	0.408	0.423
NCI-H520	–	–	–	–	–	0.306	0.356	0.32	0.242	0.246	0.532	0.481	0.379	0.189	0.242	0.648	0.65	0.812	0.664	0.62
SK-LU-1	–	–	–	–	–	0.703	0.695	0.583	0.577	0.506	0.5	0.556	0.58	0.367	0.491	0.506	0.417	0.558	0.542	0.407
NCI-H522	0.811	0.919	1.07	0.772	0.86	–	–	–	–	–	0.585	0.599	0.692	0.593	0.603	0.75	0.781	0.806	0.771	0.659
NCI-H1299	–	–	–	–	–	0.753	0.925	0.931	0.762	0.85	–	–	–	–	–	–	–	–	–	–
NCI-H1650	–	–	–	–	–	0.562	0.531	0.594	0.553	0.656	0.369	–	0.399	0.187	0.365	0.541	0.595	0.686	0.559	0.63
NCI-H2009	–	–	–	–	–	0.859	0.891	0.964	0.712	0.744	0.454	0.511	0.437	0.374	0.45	0.256	0.356	0.284	0.252	0.232
NCI-H1648	0.659	0.562	0.806	–	0.706	–	–	–	–	–	–	–	–	–	–	0.434	0.401	0.496	–	0.487
SK-MES-1	–	–	–	–	–	0.385	0.391	0.375	0.353	0.335	0.584	0.691	0.677	0.589	0.593	0.509	0.564	0.643	0.566	0.503
NCI-H2342	0.377	0.47	0.453	0.397	0.335	–	–	–	–	–	0.574	0.629	0.704	0.572	0.657	0.698	0.865	0.821	0.801	0.792
SW 900	0.653	0.571	0.652	–	0.525	–	–	–	–	–	0.639	0.702	0.559	0.196	0.279	0.554	0.853	0.742	–	0.776
A549	–	–	–	–	–	0.518	0.646	0.453	0.555	0.464	0.12	0.217	0.154	0.125	0.11	–	–	–	–	–
NCI-H661	–	–	–	–	–	0.392	0.436	0.513	0.378	0.329	0.286	0.316	0.295	0.302	0.291	0.709	0.557	0.606	0.526	0.618
NCI-H1563	–	–	–	–	–	0.663	0.659	0.691	0.635	0.634	0.638	0.67	0.595	0.514	0.512	–	–	–	–	–
ABC-1	0.696	1.23	1.1	0.819	0.957	0.676	0.67	0.721	0.673	0.576	0.287	0.255	0.262	0.22	0.213	–	–	–	–	–
